Laboratory results from article PMC9696974 (Pharmaceutics, 2022).

Key:
[1] = system: poly A-poly U (AU-RNA, pApU) (RNA, polymer) A/U; assay: UV thermal denaturation at 260 nm; settings: Na+ (sodium cacodylate, I = 50 mM); pH 7.0; r = [compound]/[polynucleotide] = 0.2; error ± 0.5 °C; per base
A549 cells [2] = assay: MTT cell viability assay, A549, with or without UV light; type: cell-based, human; settings: for Ratio of IC50 non-irradiated vs UV-irradiated: A549; for Cytotoxic effect: A549, 10 μM and 1 μM, without UV; for Cytotoxic effect / IC50: MTT; for IC50: Homo sapiens, light or radiation study, 72 h
Method: (§1) Cells. Commercially available from American Type Culture Collection (ATCC), human epithelial lung adenocarcinoma A549 (ATCC® CCL-185™) and human normal lung fibroblast WI-38 (ATCC® CCL-75™) were grown according to supplier’s conditions, namely in Dulbecco Modified Eagle’s Medium (DMEM, Sigma Aldrich, St. Louis, MO, USA) supplemented with 10% of fetal bovine serum (FBS, Sigma Aldrich, USA). Cells were incubated in the cell incubator (Thermo Fischer Scientific, Waltham, MA, USA) at 37 °C and 5% CO2 in a humidified atmosphere.
(§2) Cell viability assay. In order to obtain a 10 mM stock solution chemical compounds (2M, 1, and 1M) were sterilely diluted in an appropriate volume of dimethyl sulfoxide solution (DMSO, Gram-Mol, Zagreb, Croatia). Solutions were kept in the dark and stored at 4 °C. The cytotoxic effects of each compound were assayed on A549 and WI-38 cells. […] Briefly, cells were seeded in 96-well tissue culture plates and 24 h later treated with 2M, 1, or 1M in the concentration range of 10–0.1 μM. Cells treated with the same dilutions of DMSO represented the control, while cells treated only with DMEM (10% FBS) represented the negative control. After 72 h, the media was removed, MTT solution was added into each well, and the plate was incubated (37 °C, 5% CO2) for 3 h. The resulting MTT-formazan products were dissolved using DMSO, and their absorbance at 600 nm was measured using a microplate reader.
For determining the effect of UV exposure, cells were seeded on two plates and treated with working solutions of the respective compounds as previously described. Plates were incubated (37 °C, 5% CO2) for 90 min, allowing the compounds to enter the cells. Then, one plate was exposed to UV light (Luzchem reactor, 350 nm, 8 lamps, in total 8 W, dose 50.6 mWm^−2; ~18 cm lamp to cell-plate) for 5 min, 3 days in a row at the same time each day, while the other plate was left in the cell incubator in the dark and served as a control.

[3] = system: poly A-poly U (AU-RNA, pApU) (RNA, polymer) A/U; assay: fluorimetric titration, Scatchard; settings: Na+ (sodium cacodylate, I = 0.05 M); pH 7.0, 25 °C; Scatchard n fixed at 0.2 or 0.3; per base
[4] = system: poly dGdC-poly dGdC (GC-DNA, p(dGdC)2) (DNA, polymer) GC; assay: fluorimetric titration, Scatchard; settings: Na+ (sodium cacodylate, I = 0.05 M); pH 7.0, 25 °C; Scatchard n fixed at 0.2 or 0.3; per base
A549 cells [5] = assay: Confocal time-lapse imaging under irradiation; type: cell-based, human; settings: A549, 1 µM (Figure 9), irradiated at 350 nm
Method: Cells were left in the cell incubator for 90 min to allow the compound to enter the cells. After incubation, the medium was replaced with 500 μL of fresh medium. […]

[6] = system: pApU (poly A-poly U, ds-RNA); assay: Thermal denaturation of pApU ds-RNA (∆Tm); type: binding; settings: I = 50 mM
Method: (§3) Experiments were conducted in an aqueous buffer solution (pH = 7.0 or pH= 5.0, I = 0.05 M, sodium cacodylate buffer). For the UV-Vis spectra were used Varian Cary 100 Bio spectrometer, for fluorescence spectra we used the Varian Cary Eclipse fluorimeter and for CD spectra we used the JASCO J815 spectropolarimeter, all conducted at 25.0 °C using appropriate quartz cuvettes (path length: 1 cm).
(§4) Polynucleotides were purchased as noted: poly dAdT-poly dAdT, poly dGdC-poly dGdC, poly A-poly U (ds-RNA), (Sigma-Aldrich, Schnelldorf, Germany), calf thymus (ct)-DNA (Sigma-Aldrich, Schnelldorf, Germany) and dissolved in sodium cacodylate buffer, I = 0.05 M, pH = 7.0. The ct-DNA was sonicated and filtered through a 0.45 µm filter to obtain mostly short (ca. 100 base pairs) rod-like B-helical DNA fragments. The concentration of DNA or RNA was determined spectroscopically as the c(nucleobase) using producer-provided molar extinction coefficients.
(§5) Thermal denaturation of ds-DNA, ds-RNA and their complexes with studied compounds was performed by monitoring the absorption change at 260 nm as a function of temperature. Tm values are the midpoints of the transition curves determined from the maximum of the first derivative and checked graphically by the tangent method. The ∆Tm values were calculated by subtracting the Tm of the free nucleic acid from the Tm of the complex. Every ∆Tm value here reported was the average of at least two measurements. The error in ∆Tm is ± 0.5 °C.

[7] = biological target: AT-DNA (poly dAdT-poly dAdT); assay: Fluorimetric titration with AT-DNA, Scatchard equation; type: binding; settings: pH 7, sodium cacodylate buffer, I = 0.05 M
Method: as §3, §4
(§6) Fortunately, strong emission from the compounds studied allowed fluorimetric titrations to be performed at much lower concentrations of the dyes (c = 5 × 10^−8 M), thus preventing precipitation of non-methylated 1 or 2, and allowing for the collection of numerous data points at excess of DNA/RNA binding sites over c(dye). […]

poly dAdT-poly dAdT = assay: Thermal denaturation of poly dAdT-poly dAdT (∆Tm); type: binding; settings: I = 50 mM
Method: as §3, §4, §5

[8] = biological target: GC-DNA (poly dGdC-poly dGdC); assay: Fluorimetric titration with GC-DNA, Scatchard equation; type: binding; settings: pH 7, sodium cacodylate buffer, I = 0.05 M
Method: as §3, §4, §6

[9] = system: poly dAdT-poly dAdT (AT-DNA, p(dAdT)2) (DNA, polymer) AT; assay: fluorimetric titration, Scatchard; settings: Na+ (sodium cacodylate, I = 0.05 M); pH 7.0, 25 °C; Scatchard n fixed at 0.2 or 0.3; per base
WI-38 cells = assay: MTT cell viability assay, WI-38, with or without UV light; type: cell-based, human; settings: WI-38, 10 μM and 1 μM, without UV
Method: as §1
as §2, with “After 72 h, the media was removed, MTT solution was added into each well, and the plate was incubated (37 °C, 5% CO2) for 3 h.” left out, “reader. […]” for “reader.”

AU-RNA (poly A-poly U) = assay: Fluorimetric titration with AU-RNA, Scatchard equation; type: binding; settings: pH 7, sodium cacodylate buffer, I = 0.05 M
Method: as §3, §4, §6

ct-DNA = assay: Thermal denaturation of ct-DNA (∆Tm); type: binding, calf; settings: I = 50 mM
Method: as §3, §4, §5

[10] = A549, UV-irradiated (350 nm, 5 min, 3 days in a row)
[11] = r = 0.2, pH 7.0, sodium cacodylate buffer
[12] = r = 0.3, pH 7.0, sodium cacodylate buffer

Row | Structure (SMILES) | ∆Tm [1] [°C] | Ratio of IC50 non-irradiated vs UV-irradiated (A549 cells [2]) | Cytotoxic effect (A549 cells [2]) | IC50 (A549 cells [2]; [10]) [nM] | IC50 (A549 cells [2]; A549, non-irradiated) [nM] | logKs [3] | logKs [4] | Cell morphology under continuous irradiation (A549 cells [5]) | ∆Tm pApU [6, 11] [°C] | Binding constant logKs AT-DNA [7] | ∆Tm Poly dAdT-Poly dAdT (poly dAdT-poly dAdT; [11]) [°C] | ∆Tm Poly dAdT-Poly dAdT (poly dAdT-poly dAdT; [12]) [°C] | Binding constant logKs GC-DNA [8] | logKs [9] | Cytotoxic effect relative to A549 (WI-38 cells) | Binding constant logKs AU-RNA (AU-RNA (poly A-poly U)) | further results
1 | C[n+]1ccc(-c2cc3ccc4cccc5ccc(c2)c3c45)cc1 [1M, 2-para-N-methylpyridinium pyrene] | 3 | 15 | considerable cytotoxic effects | 100 | 1500 | 5.8 | 7.0 | swelling and even blebbing morphology | 3 | 5.9 | 8 | 9 | 7.0 | 5.9 | somewhat more resilient | 5.8 | ∆Tm pApU [6, 12]: 3 °C
2 | C[n+]1ccc(-c2cc3ccc4cc(-c5cc[n+](C)cc5)cc5ccc(c2)c3c45)cc1 [2M] | 4 | four times | considerable cytotoxic effects | 2000 | 8000 | 8.5 | 9.1 | swelling and even blebbing morphology | 4 | 7.1 | 31 | 33 | 9.1 | 7.1 | somewhat more resilient | 8.5 | ∆Tm ct-DNA (ct-DNA; [11]): ^d >16 °C; ∆Tm ct-DNA (ct-DNA; [12]): ^d >16 °C
3 | c1cc2ccc3cc(-c4ccncc4)cc4ccc(c1)c2c34 [compound 1] | – | four times | considerable cytotoxic effects | 2000 | 8000 | – | – | – | – | – | – | – | – | – | – | – | ∆Tm ct-DNA (ct-DNA; r = 0.1, pH 5.0, sodium cacodylate buffer): 0 °C; ∆Tm ct-DNA (ct-DNA; r = 0.3, pH 5.0, sodium cacodylate buffer): 2 °C
